Reference: patent US20100099670A1, “Benzoquinazoline derivatives” (priority 2007, published 2010)

Biological target: T1, human PcaR (Homo sapiens, UniProt P41180)
T1 construct: expressed in transfected cells; host or cells: CCL39 fibroblasts (hamster lung fibroblast line), stably transfected
T1 sequence (P41180 20-1078): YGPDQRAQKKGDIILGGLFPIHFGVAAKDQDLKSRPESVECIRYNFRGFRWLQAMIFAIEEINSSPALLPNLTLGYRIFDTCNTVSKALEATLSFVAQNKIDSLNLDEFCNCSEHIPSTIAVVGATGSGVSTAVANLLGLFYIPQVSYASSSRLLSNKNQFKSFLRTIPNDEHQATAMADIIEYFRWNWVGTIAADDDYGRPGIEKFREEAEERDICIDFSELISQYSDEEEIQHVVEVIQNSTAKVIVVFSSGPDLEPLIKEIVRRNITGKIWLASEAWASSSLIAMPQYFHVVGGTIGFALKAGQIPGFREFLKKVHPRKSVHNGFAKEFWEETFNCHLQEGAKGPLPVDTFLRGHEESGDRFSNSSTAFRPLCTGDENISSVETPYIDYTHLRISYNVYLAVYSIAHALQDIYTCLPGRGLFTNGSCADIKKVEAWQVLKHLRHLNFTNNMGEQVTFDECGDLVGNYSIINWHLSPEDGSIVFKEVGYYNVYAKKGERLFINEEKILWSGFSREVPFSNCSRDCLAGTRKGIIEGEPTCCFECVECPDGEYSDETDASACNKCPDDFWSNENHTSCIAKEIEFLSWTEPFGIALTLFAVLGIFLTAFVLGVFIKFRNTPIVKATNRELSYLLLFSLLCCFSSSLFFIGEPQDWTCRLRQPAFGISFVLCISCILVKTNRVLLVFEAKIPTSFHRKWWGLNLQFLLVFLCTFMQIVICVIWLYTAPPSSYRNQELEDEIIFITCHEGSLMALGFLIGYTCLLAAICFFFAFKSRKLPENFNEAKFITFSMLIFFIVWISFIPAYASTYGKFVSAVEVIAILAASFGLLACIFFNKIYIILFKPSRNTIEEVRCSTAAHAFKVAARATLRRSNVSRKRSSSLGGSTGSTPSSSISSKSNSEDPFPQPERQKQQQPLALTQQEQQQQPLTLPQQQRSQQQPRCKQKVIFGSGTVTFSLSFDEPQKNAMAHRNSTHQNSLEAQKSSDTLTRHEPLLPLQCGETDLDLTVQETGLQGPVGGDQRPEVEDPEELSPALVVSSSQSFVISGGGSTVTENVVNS
Assay: Inhibition of intracellular calcium transients stimulated by extracellular calcium (assay for intracellular free calcium)
Format: cell-based
Conditions: CCL39 fibroblasts stably transfected with human PcaR; Fluo-3 AM; stimulated with calcium 2.5 mM final; read-out: IC50 (nm) (range in which compound fall)
Method: Inhibition of Intracellular Calcium Transients Stimulated by Extracellular Calcium
In the test system, which is described in detail below, the following ranges of IC50 values are found:
Assay for Intracellular Free Calcium:
A method to determine antagonism at the PcaR consists in measuring the inhibition of intracellular calcium transients stimulated by extracellular calcium.
CCL39 fibroblasts stably transfected with human PcaR are seeded at 40,000 cells/well into 96-well Viewplates and incubated for 24 hours. Medium is then removed and replaced with fresh medium containing 2 μM Fluo-3 AM (Molecular Probes, Leiden, The Netherlands), In routine experiments, cells are incubated at 37° C., 5% CO2 for 1 h. Afterwards, plates are washed twice with mHBS and wells are refilled with 100 μl mHBS containing the test compounds. Incubation is continued at room temperature for 15 minutes. To record changes of intracellular free calcium, plates are transferred to fluorescence-imaging plate reader (Molecular Devices, Sunnyvale, Calif., USA). A baseline consisting in 5 measurements of 0.4 seconds each (laser excitation 488 nm) is recorded. Cells are then stimulated with calcium (2.5 mM final), and fluorescence changes recorded over a period of 3 minutes.

IC50 [nM] | Structure (SMILES)
0.2 to 0.5 | C#CCOc1ccc2nc(C(=O)c3ccc4c(c3)OCO4)nc(-c3ccc(C(C)C)cc3)c2c1 [Example 2, Benzo[1,3]dioxol-5-yl-[4-(4-isopropyl-phenyl)-6-propargyloxy-quinazolin-2-yl]-methanone]
0.2 to 0.5 | C#CCOc1ccc2nc(C(=O)c3ccc4c(c3)CCO4)nc(-c3ccc(C(C)C)cc3)c2c1 [Example 3, (2,3-Dihydro-benzofuran-5-yl)-[4-(4-isopropyl-phenyl)-6-propargyloxy-quinazolin-2-yl]-methanone]
0.5 to 1 | C#CCOc1ccc2nc(C(=O)c3ccc4c(c3)OC=CO4)nc(-c3ccc(C(C)C)cc3)c2c1 [Example 4, Benzo[1,4]dioxin-6-yl-[4-(4-isopropyl-phenyl)-6-propargyloxy-quinazolin-2-yl]-methanone]
0.2 to 0.5 | C#CCOc1ccc2nc(C(=O)c3ccc4c(c3)OCC4)nc(-c3ccc(C(C)C)cc3)c2c1 [Example 6, (2,3-Dihydro-benzofuran-6-yl)-[4-(4-isopropyl-phenyl)-6-propargyloxy-quinazolin-2-yl]-methanone]
0.2 to 0.5 | C#CCOc1ccc2nc(C(=O)c3ccc4occc4c3)nc(-c3ccc(C(C)C)cc3)c2c1 [Example 8, Benzofuran-5-yl-[4-(4-isopropyl-phenyl)-6-propargyloxy-quinazolin-2-yl]-methanone]

More lines, now with the values behind:

Structure (SMILES) | IC50 [nM]
C#CCOc1ccc2nc(C(=O)c3ccc4c(c3)OCCO4)nc(-c3ccc(C(C)C)cc3)c2c1 [Example 1, (2,3-Dihydro-benzo[1,4]dioxin-6-yl)-[4-(4-isopropyl-phenyl)-6-propargyloxy-quinazolin-2-yl]-methanone] | 0.5 to 1
C#CCOc1ccc2nc(C(=O)c3ccc4c(c3)CCC4)nc(-c3ccc(C(C)C)cc3)c2c1 [Example 5, Indan-5-yl-[4-(4-isopropyl-phenyl)-6-propargyloxy-quinazolin-2-yl]-methanone] | 0.5 to 1
C#CCOc1ccc2nc(C(=O)c3ccc4c(c3)OCCN4C)nc(-c3ccc(C(C)C)cc3)c2c1 [Example 7, [4-(4-Isopropyl-phenyl)-6-propargyloxy-quinazolin-2-yl]-(4-methyl-3,4-dihydro-2H-benzo[1,4]oxazin-7-yl)-methanone] | 0.2 to 0.5
C#CCOc1ccc2nc(C(=O)c3ccc4c(c3)C(C)(C)CCC4(C)C)nc(-c3ccc(C(C)C)cc3)c2c1 [Example 9, [4-(4-Isopropyl-phenyl)-6-propargyloxy-quinazolin-2-yl]-(5,5,8,8-tetramethyl-5,6,7,8-tetrahydro-naphthalen-2-yl)-methanone] | 1 to 5
C#CCOc1ccc2nc(C(=O)c3ccc4c(c3)N(C)CCO4)nc(-c3ccc(C(C)C)cc3)c2c1 [Example 10, [4-(4-Isopropyl-phenyl)-6-propargyloxy-quinazolin-2-yl]-(4-methyl-3,4-dihydro-2H-benzo[1,4]oxazin-6-yl)-methanone] | 1 to 5
C#CCOc1ccc2nc(C(=O)c3nc4ccc(OC)cc4s3)nc(-c3ccc(C(C)C)cc3)c2c1 [Example 11, [4-(4-Isopropyl-phenyl)-6-propargyloxy-quinazolin-2-yl]-(6-methoxy-benzo-thiazol-2-yl)-methanone] | 5 to 10
C#CCOc1ccc2nc(C(=O)c3ccc4c(c3)-c3ccccc3C4=O)nc(-c3ccc(C(C)C)cc3)c2c1 [Example 12, 3-[4-(4-Isopropyl-phenyl)-6-propargyloxy-quinazolin-2-carbonyl]-fluoren-9-one] | 0.2 to 0.5
